Calls of active or inactive are those of the source. The calls are words filed in the database; no cut-off is given here.
Experiments:
HL-60 = test: Cytotoxicity against human HL60 cells after 48 hrs by CCK-8 assay; assay type: functional, cell-based; details: HL-60, 48 h
A549 [1] = test: cells; details: Homo sapiens, A549, 48 h
Description: Cytotoxicity against human A549 cells after 48 hrs by MTT assay

SiHa = test: Cytotoxicity against human SiHa cells after 48 hrs by MTT assay; assay type: functional, cell-based
HeLa = test: Cytotoxicity against human HeLa cells after 48 hrs by CCK-8 assay; assay type: functional, cell-based
A549 [2] = test: Induction of apoptosis in human A549 cells assessed as membrane blebbing at 0.5 uM after 24 hrs by Hoechst 33258 staining based fluorescence microscopy; assay type: functional, cell-based
A549 [3] = test: Cell cycle arrest in human A549 cells assessed as accumulation at G2/M phase at 0.5 uM after 12 hrs by propidium iodide staining based flow cytometry analysis (reference value: 15.6%); assay type: functional
A549 [4] = test: Cell cycle arrest in human A549 cells assessed as accumulation at G1 phase at 0.5 uM by propidium iodide staining based flow cytometry analysis; assay type: functional; details: TDE = time-dependent effect
A549 [5] = test: Cell cycle arrest in human A549 cells assessed as accumulation at S phase at 0.5 uM after 24 hrs by propidium iodide staining based flow cytometry analysis (reference value: 30.3%); assay type: functional
A549 [6] = test: Induction of apoptosis in human A549 cells assessed as increase in caspase-7 cleavage at 0.5 uM by Western blot analysis; assay type: functional, cell-based; details: TDE = time-dependent effect
A549 [7] = test: Cell cycle arrest in human A549 cells assessed as accumulation at S phase at 0.5 uM after 12 hrs by propidium iodide staining based flow cytometry analysis (reference value: 30.3%); assay type: functional
A549 [8] = test: Cell cycle arrest in human A549 cells assessed as accumulation at G1 phase at 0.5 uM after 12 hrs by propidium iodide staining based flow cytometry analysis (reference value: 54.1%); assay type: functional
A549 [9] = test: Induction of apoptosis in human A549 cells assessed as cell detachment at 0.5 uM after 24 hrs by Hoechst 33258 staining based fluorescence microscopy; assay type: functional
A549 [10] = test: Induction of apoptosis in human A549 cells assessed as nuclear condensation at 0.5 uM after 24 hrs by Hoechst 33258 staining based fluorescence microscopy; assay type: functional, cell-based
A549 [11] = test: Induction of apoptosis in human A549 cells assessed as nuclear fragmentation at 0.5 uM after 24 hrs by Hoechst 33258 staining based fluorescence microscopy; assay type: functional, cell-based
A549 [12] = test: Induction of apoptosis in human A549 cells assessed as increase in caspase-3 cleavage at 0.5 uM by Western blot analysis; assay type: functional, cell-based; details: TDE = time-dependent effect
A549 [13] = test: Cell cycle arrest in human A549 cells assessed as accumulation at G2/M phase at 0.5 uM after 24 hrs by propidium iodide staining based flow cytometry analysis (reference value: 15.6%); assay type: functional
A549 [14] = test: Cell cycle arrest in human A549 cells assessed as accumulation at G2/M phase at 0.5 uM by propidium iodide staining based flow cytometry analysis; assay type: functional; details: TDE = time-dependent effect
A549 [15] = test: Cell cycle arrest in human A549 cells assessed as accumulation at G1 phase at 0.5 uM after 24 hrs by propidium iodide staining based flow cytometry analysis (reference value: 54.1%); assay type: functional
A549 [16] = test: Induction of apoptosis in human A549 cells assessed as cell shrinkage at 0.5 uM after 24 hrs by Hoechst 33258 staining based fluorescence microscopy; assay type: functional

## O=c1[nH]cc(F)c(=O)[nH]1 [FLUOROURACIL]
HL-60
  IC50: 68300 nM
A549 [1]
  IC50: 54800 nM
SiHa
  IC50: 218000 nM
HeLa
  IC50: 82200 nM

## COc1cc([C@@H]2c3cc4c(cc3C[C@H]3COC(=O)[C@@H]32)OCO4)cc(OC)c1OC(=O)[C@H](CCSC)NC(=O)Cn1cc(F)c(=O)[nH]c1=O
HL-60
  IC50: 230 nM
A549 [1]
  IC50: 830 nM
SiHa
  IC50: 360 nM
HeLa
  IC50: 780 nM

## COc1cc([C@@H]2c3cc4c(cc3C[C@H]3COC(=O)[C@@H]32)OCO4)cc(OC)c1OC(=O)[C@@H](NC(=O)Cn1cc(F)c(=O)[nH]c1=O)C(C)C
HL-60
  IC50: 140 nM
A549 [1]
  IC50: 360 nM
SiHa
  IC50: 1650 nM
HeLa
  IC50: 1230 nM

## COc1cc([C@@H]2c3cc4c(cc3C[C@H]3COC(=O)[C@@H]32)OCO4)cc(OC)c1OC(=O)[C@H](Cc1ccccc1)NC(=O)Cn1cc(F)c(=O)[nH]c1=O
A549 [2]
  Activity: Active
A549 [3]
  Activity: 52.6%
HL-60
  IC50: 23 nM
A549 [4]
  Activity: tde
A549 [5]
  Activity: 31.3%
A549 [6]
  Activity: tde
A549 [7]
  Activity: 42.6%
A549 [8]
  Activity: 4.84%
A549 [1]
  IC50: 560 nM
A549 [9]
  Activity: Active
A549 [10]
  Activity: Active
A549 [11]
  Activity: Active
A549 [12]
  Activity: tde
A549 [13]
  Activity: 64.8%
A549 [14]
  Activity: tde
A549 [15]
  Activity: 3.94%
SiHa
  IC50: 760 nM
HeLa
  IC50: 830 nM
A549 [16]
  Activity: Active

## COc1cc([C@@H]2c3cc4c(cc3C[C@H]3COC(=O)[C@@H]32)OCO4)cc(OC)c1O [4'-DEMETHYLDEOXYPODOPHYLLOTOXIN]
SiHa
  IC50: 43000 nM
HeLa
  IC50: 53300 nM

## COc1cc([C@@H]2c3cc4c(cc3C[C@H]3COC(=O)[C@@H]32)OCO4)cc(OC)c1OC(=O)[C@H](C)NC(=O)Cn1cc(F)c(=O)[nH]c1=O
HL-60
  IC50: 190 nM
A549 [1]
  IC50: 1400 nM
SiHa
  IC50: 600 nM
HeLa
  IC50: 200 nM

## COc1cc([C@@H]2c3cc4c(cc3[C@H](O)[C@H]3COC(=O)[C@H]23)OCO4)cc(OC)c1OC
A549 [2]
  Activity: Active
A549 [9]
  Activity: Active
A549 [10]
  Activity: Active
A549 [11]
  Activity: Active
A549 [16]
  Activity: Active

## COc1cc([C@@H]2c3cc4c(cc3C[C@H]3COC(=O)[C@@H]32)OCO4)cc(OC)c1OC(=O)Cn1cc(F)c(=O)[nH]c1=O
HL-60
  IC50: 35 nM
A549 [1]
  IC50: 660 nM
SiHa
  IC50: 110 nM
HeLa
  IC50: 180 nM

## COc1cc([C@@H]2c3cc4c(cc3C[C@H]3COC(=O)[C@@H]32)OCO4)cc(OC)c1OC(=O)[C@@H](CCSC)NC(=O)Cn1cc(F)c(=O)[nH]c1=O
HL-60
  IC50: 940 nM
A549 [1]
  IC50: 2600 nM
SiHa
  IC50: 1510 nM
HeLa
  IC50: 1970 nM

## COc1cc([C@@H]2c3cc4c(cc3C[C@H]3COC(=O)[C@@H]32)OCO4)cc(OC)c1OC [DESOXYPODOPHYLLOTOXIN]
SiHa
  IC50: 1980 nM
HeLa
  IC50: 6010 nM

## COc1cc([C@@H]2c3cc4c(cc3C[C@H]3COC(=O)[C@@H]32)OCO4)cc(OC)c1OC(=O)[C@H](CC(C)C)NC(=O)Cn1cc(F)c(=O)[nH]c1=O
HL-60
  IC50: 63 nM
A549 [1]
  IC50: 1070 nM
SiHa
  IC50: 350 nM
HeLa
  IC50: 430 nM

## COc1cc([C@@H]2c3cc4c(cc3[C@@H](O[C@@H]3O[C@@H]5CO[C@@H](C)O[C@H]5[C@H](O)[C@H]3O)[C@H]3COC(=O)[C@H]23)OCO4)cc(OC)c1O [ETOPOSIDE]
SiHa
  IC50: 2760 nM
HeLa
  IC50: 40400 nM

From ChEMBL document CHEMBL1944503, “Synthesis and biological evaluation of conjugates of deoxypodophyllotoxin and 5-FU as inducer of caspase-3 and -7” (Eur J Med Chem, 2012)
